Source: patent publication US5204241A, “Glutathione-S-transferase mu as a measure of drug resistance” (Oxi-Gene Inc., priority 1990, dated 1993)

Tested on: glutathione transferase (GST-tSBO, identical to GST-mu)
Assay: Glutathione transferase activity of human liver cytosols (105,000 g supernatants) toward tauromustine and trans-stilbene oxide as substrates
Format: in vitro ADME
Protocol: Human liver biopsies from ? 3 individuals were homogenized in 5 vol. of 0.25 M sucrose, centrifuged at 10,000 g for 15 minutes and then the resulting supernatant was re-centrifuged at 105,000 g for one hour. The 105,000 g supernatants were analyzed for glutathione transferase activity using trans-stilbene oxide (tSBO) and tauromustine as substrates. Metabolism of these substrates to glutathione conjugates was monitored by radiometric procedures involving differential organic solvent extraction, see Gill, S., Ota, J. and Hammock, B. D. Anal. Biochem. 131: 273-282 (1983), and high pressure liquid chromatography (HPLC).

CN(C)S(=O)(=O)CCNC(=O)N(CCCl)N=O [tauromustine]
glutathione transferase activity toward tauromustine (human liver cytosols with GST-tSBO activity 0-10 nmo/min/mg protein (GST mu lacking)): 0-2 nmol/min/mg protein
glutathione transferase activity toward tauromustine (metabolism of tauromustine) (human liver cytosols with easily detectable GST-tSBO activity, 25-65 nmol/min/mg protein (GST mu present)): 4-19 nmol/min/mg protein
extent of metabolism by human liver cytosols having GST mu activity versus cytosols lacking GST mu activity (human liver cytosols, GST mu (+) vs (-)): metabolized to a much greater extent
